{
  "source": "patent US11857555B2",
  "about": "“Aqueous pharmaceutical formulation of hydrocortisone sodium phosphate and monothioglycerol” (ANTARES PHARMA, INC., priority 2020, dated 2024)",
  "key": {"[1]": {"experiment": "Forced degradation of HCP API under stress conditions (0.1 N HCl, 0.1 N NaOH, dry heat)", "assay_type": "physicochemical", "conditions": "3 different stress conditions: 0.1 N HCl, qualitative", "experimental": "To develop this method, Hydrocortisone sodium phosphate API was kept under stress conditions. These stress conditions included treatment with 0.1 N HCl, 0.1 N NaOH and dry heat. This was performed to investigate the nature of API and its compatibility with the stress conditions. It also helped generate degradation products to assess the specificity of the HPLC method under development. Information on degradation products and the conditions used to generate them was used to optimize the method for better resolution of such degradation products on chromatogram. FIGS. 3A-3C show chromatograms of HCP under stress conditions.\nThe proportions in which the degradants formed depended on the stress condition. Stress studies performed on the API were done for qualitative purpose only."}, "[2]": {"conditions": "light, strong acids and alkalies; cited from earlier work"}},
  "data": [
    {"compound": "C[C@]12CCC(=O)C=C1CC[C@@H]1[C@@H]2[C@@H](O)C[C@@]2(C)[C@H]1CC[C@]2(O)C(=O)COP(=O)([O-])[O-].[Na+].[Na+]", "note": "[HCP, Hydrocortisone sodium phosphate]", "values": [
      {"measurement": "forced degradation outcome (in words)", "setting": "[1]", "value": "formation of Hydrocortisone, other common degradants"}
    ]},
    {"compound": "C[C@]12CCC(=O)C=C1CC[C@@H]1[C@@H]2[C@@H](O)C[C@@]2(C)[C@H]1CC[C@]2(O)C(=O)CO", "note": "[Hydrocortisone]", "values": [
      {"measurement": "stability (in words)", "setting": "[2]", "value": "sensitive to light and unstable in strong acids and alkalies"}
    ]}
  ]
}
